From patent publication US11051515B2, “3-acyl-benzamides and their use as herbicides” (Bayer Aktiengesellschaft, priority 2017, dated 2021)

Columns and labels:
PHBPU [1] = assay: Pre-emergence action against PHBPU; type: in vivo, Pharbitis purpurea; conditions: Dosage 320 g/ha, pre-emergence
In short: (§1)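 Seeds sown in sandy loam in wood-fiber pots and covered with soil. Greenhouse growth; visual damage scored after 3 weeks versus untreated controls (100% = dead, 0% = like control).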

AVEFA [2] = assay: Pre-emergence action against AVEFA; type: in vivo, Avena fatua; conditions: dosage 320 g/ha, scored visually after 3 weeks vs untreated controls
In short: as §1

LOLMU = assay: Pre-emergence action against LOLMU; type: in vivo, Lolium multiflorum; conditions: dosage 320 g/ha, scored visually after 3 weeks vs untreated controls
From the text: Seeds of monocotyledonous and dicotyledonous weed plants and crop plants are laid out in sandy loam soil in wood-fiber pots and covered with soil. The compounds of the invention, formulated in the form of wettable powders (WP) or as emulsion concentrates (EC), are then applied to the surface of the covering soil in the form of an aqueous suspension or emulsion at a water application rate equating to […], with addition of 0.2% wetting agent. After the treatment, the pots are placed in a greenhouse and kept under good growth conditions for the trial plants. The damage to the test plants is scored visually after a test period of 3 weeks by comparison with untreated controls (herbicidal activity in percent (%): 100% activity=the plants have died, 0% activity=like control plants).

POLCO [3] = assay: Post-emergence action against POLCO; type: in vivo, Polygonum convolvulus; conditions: post-emergence, dosage 80 g/ha
In short: (§2)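 Post-emergence foliar spray on greenhouse plants at the one-leaf stage, using wettable-powder or emulsion-concentrate formulations in water (600 to […], plus 0.2% wetting agent). Damage scored by eye roughly 3 weeks later against untreated plants: 0% = like control, 100% = dead.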

CYPES [4] = assay: Post-emergence action against CYPES; type: in vivo, Cyperus esculentus; conditions: post-emergence, dosage 80 g/ha, visual assessment about 3 weeks after treatment vs untreated controls
In short: as §2

AMARE [5] = assay: Pre-emergence action against AMARE; type: in vivo, Amaranthus retroflexus; conditions: pre-emergence, dosage 320 g/ha, scored visually after 3 weeks vs untreated controls
In short: as §1

ABUTH [6] = assay: Post-emergence action against ABUTH; type: in vivo, Abutilon theophrasti; conditions: post-emergence, dosage 80 g/ha, visual assessment about 3 weeks after treatment vs untreated controls
In short: as §2

STEME [7] = assay: Pre-emergence action against STEME; type: in vivo, Stellaria media; conditions: Dosage 320 g/ha, pre-emergence
In short: as §1

MATIN [8] = assay: Pre-emergence action against MATIN; type: in vivo, Matricaria inodora; conditions: Dosage 320 g/ha, pre-emergence
In short: as §1

VERPE [9] = assay: Pre-emergence action against VERPE; type: in vivo, Veronica persica; conditions: Dosage 320 g/ha, pre-emergence
In short: as §1

ECHCG [10] = assay: Post-emergence action against ECHCG; type: in vivo, Echinochloa crus-galli; conditions: post-emergence, dosage 80 g/ha, visual assessment about 3 weeks after treatment vs untreated controls
In short: as §2

ABUTH [11] = assay: Pre-emergence action against ABUTH; type: in vivo, Abutilon theophrasti; conditions: pre-emergence, dosage 320 g/ha, scored visually after 3 weeks vs untreated controls
In short: as §1

PHBPU [12] = assay: Post-emergence action against PHBPU; type: in vivo, Pharbitis purpurea; conditions: post-emergence, dosage 80 g/ha
In short: as §2

MATIN [13] = assay: Post-emergence action against MATIN; type: in vivo, Matricaria inodora; conditions: post-emergence, dosage 80 g/ha, visual assessment about 3 weeks after treatment vs untreated controls
In short: as §2

CYPES [14] = assay: Pre-emergence action against CYPES; type: in vivo, Cyperus esculentus; conditions: pre-emergence, dosage 320 g/ha, scored visually after 3 weeks vs untreated controls
In short: as §1

ECHCG [15] = assay: Pre-emergence action against ECHCG; type: in vivo, Echinochloa crus-galli; conditions: pre-emergence, dosage 320 g/ha, scored visually after 3 weeks vs untreated controls
In short: as §1

SETVI [16] = assay: Pre-emergence action against SETVI; type: in vivo, Setaria viridis; conditions: pre-emergence, dosage 320 g/ha, scored visually after 3 weeks vs untreated controls
In short: as §1

VIOTR [17] = assay: Pre-emergence action against VIOTR; type: in vivo, Viola tricolor; conditions: Dosage 320 g/ha, pre-emergence
In short: as §1

POLCO [18] = assay: Pre-emergence action against POLCO; type: in vivo, Polygonum convolvulus; conditions: Dosage 320 g/ha, pre-emergence
In short: as §1

VIOTR [19] = assay: Post-emergence action against VIOTR; type: in vivo, Viola tricolor; conditions: post-emergence, dosage 80 g/ha
In short: as §2

STEME [20] = assay: Post-emergence action against STEME; type: in vivo, Stellaria media; conditions: post-emergence, dosage 80 g/ha
In short: as §2

ALOMY [21] = assay: Pre-emergence action against ALOMY; type: in vivo, Alopecurus myosuroides; conditions: dosage 320 g/ha, pre-emergence, scored visually after 3 weeks vs untreated controls, 100% = plants have died, 0% = like control plants
In short: as §1

SETVI [22] = assay: Post-emergence action against SETVI; type: in vivo, Setaria viridis; conditions: post-emergence, dosage 80 g/ha, visual assessment about 3 weeks after treatment vs untreated controls
In short: as §2

VERPE [23] = assay: Post-emergence action against VERPE; type: in vivo, Veronica persica; conditions: dosage 80 g/ha
In short: as §2

AMARE [24] = assay: Post-emergence action against AMARE; type: in vivo, Amaranthus retroflexus; conditions: post-emergence, dosage 80 g/ha, visual assessment about 3 weeks after treatment vs untreated controls
In short: as §2

AVEFA [25] = assay: Post-emergence action against AVEFA; type: in vivo, Avena fatua; conditions: post-emergence, dosage 80 g/ha, visual assessment about 3 weeks after treatment vs untreated controls
In short: as §2

ALOMY [26] = assay: Post-emergence action against ALOMY; type: in vivo, Alopecurus myosuroides; conditions: Dosage 80 g/ha, post-emergence
In short: as §2

CCn1nnnc1NC(=O)c1ccc(C(F)(F)F)c(C(C)=O)c1Br [2-195]
80%: Pre-emergence action against PHBPU (PHBPU [1]) | Pre-emergence action against LOLMU (herbicidal activity) (LOLMU) | Post-emergence action against ABUTH (herbicidal action in percent) (ABUTH [6])
90: Post-emergence action against POLCO (POLCO [3]) | Post-emergence action against PHBPU (PHBPU [12]) | Post-emergence action against STEME (STEME [20])
100%: Pre-emergence action against AMARE (herbicidal activity) (AMARE [5]) | Pre-emergence action against STEME (STEME [7]) | Pre-emergence action against MATIN (MATIN [8]) | Pre-emergence action against VERPE (VERPE [9]) | Pre-emergence action against ABUTH (herbicidal activity) (ABUTH [11]) | Pre-emergence action against CYPES (herbicidal activity) (CYPES [14]) | Pre-emergence action against ECHCG (herbicidal activity) (ECHCG [15]) | SETVI (Table B8, pre-emergence herbicidal activity) (SETVI [16]) | Pre-emergence action against VIOTR (VIOTR [17])
90%: Pre-emergence action against AVEFA (herbicidal activity) (AVEFA [2]) | Post-emergence action against CYPES (herbicidal action in percent) (CYPES [4]) | Post-emergence action against ECHCG (herbicidal action in percent) (ECHCG [10]) | Post-emergence action against MATIN (herbicidal action in percent) (MATIN [13]) | Pre-emergence action against POLCO (POLCO [18]) | Pre-emergence action against ALOMY (herbicidal activity in percent) (ALOMY [21]) | Post-emergence action against SETVI (herbicidal action in percent) (SETVI [22])
100: Post-emergence action against VIOTR (VIOTR [19])

CCn1nnnc1NC(=O)c1ccc(SC)c(C(=O)C2CC2)c1Cl [2-123]
80%: Pre-emergence action against AVEFA (herbicidal activity) (AVEFA [2])
100: Post-emergence action against VERPE (VERPE [23]) | Post-emergence action against PHBPU (PHBPU [12]) | Post-emergence action against VIOTR (VIOTR [19]) | Post-emergence action against STEME (STEME [20])
100%: Pre-emergence action against AMARE (herbicidal activity) (AMARE [5]) | Post-emergence action against ABUTH (herbicidal action in percent) (ABUTH [6]) | Pre-emergence action against STEME (STEME [7]) | Pre-emergence action against MATIN (MATIN [8]) | Pre-emergence action against VERPE (VERPE [9]) | Post-emergence action against ECHCG (herbicidal action in percent) (ECHCG [10]) | Pre-emergence action against ABUTH (herbicidal activity) (ABUTH [11]) | Post-emergence action against MATIN (herbicidal action in percent) (MATIN [13]) | Post-emergence action against AMARE (herbicidal action in percent) (AMARE [24]) | Pre-emergence action against ECHCG (herbicidal activity) (ECHCG [15]) | SETVI (Table B8, pre-emergence herbicidal activity) (SETVI [16]) | Pre-emergence action against VIOTR (VIOTR [17]) | Post-emergence action against AVEFA (herbicidal action in percent) (AVEFA [25]) | Pre-emergence action against ALOMY (herbicidal activity in percent) (ALOMY [21]) | Post-emergence action against SETVI (herbicidal action in percent) (SETVI [22])
90%: Pre-emergence action against LOLMU (herbicidal activity) (LOLMU) | Pre-emergence action against CYPES (herbicidal activity) (CYPES [14]) | Post-emergence action against ALOMY (ALOMY [26])

CCn1nnnc1NC(=O)c1ccc(C(F)(F)F)c(C(C)=O)c1Cl [2-137, 3-acetyl-2-chloro-N-(1-ethyl-1H-tetrazol-5-yl)-4-(trifluoromethyl)benzamide]
100%: pest or weed control at 320 g/ha (AMARE [5]; Amaranthus retroflexus, 504 h, read-out: Pre-emergence action against AMARE (herbicidal activity)) | pest or weed control at 320 g/ha (MATIN [8]; Tripleurospermum inodorum, 504 h) | pest or weed control at 320 g/ha (ABUTH [11]; Abutilon theophrasti, 504 h, read-out: Pre-emergence action against ABUTH (herbicidal activity)) | pest or weed control at 80 g/ha (MATIN [13]; Tripleurospermum inodorum, 504 h, read-out: Post-emergence action against MATIN (herbicidal action in percent)) | pest or weed control at 80 g/ha (AMARE [24]; Amaranthus retroflexus, 504 h, read-out: Post-emergence action against AMARE (herbicidal action in percent)) | pest or weed control at 320 g/ha (CYPES [14]; Cyperus esculentus, 504 h, read-out: Pre-emergence action against CYPES (herbicidal activity)) | pest or weed control at 320 g/ha (ECHCG [15]; Echinochloa crus-galli, 504 h, read-out: Pre-emergence action against ECHCG (herbicidal activity)) | pest or weed control at 320 g/ha (SETVI [16]; Setaria viridis, 504 h, read-out: SETVI (Table B8, pre-emergence herbicidal activity)) | pest or weed control at 320 g/ha (VIOTR [17]; Viola tricolor, 504 h) | pest or weed control at 80 g/ha (VIOTR [19]; Viola tricolor, 504 h) | pest or weed control at 80 g/ha (STEME [20]; Stellaria media, 504 h) | pest or weed control at 80 g/ha (SETVI [22]; Setaria viridis, 504 h, read-out: Post-emergence action against SETVI (herbicidal action in percent))
90%: pest or weed control at 80 g/ha (VERPE [23]; Veronica persica, 504 h) | pest or weed control at 320 g/ha (AVEFA [2]; Avena fatua, 504 h, read-out: Pre-emergence action against AVEFA (herbicidal activity)) | pest or weed control at 80 g/ha (POLCO [3]; Fallopia convolvulus, 504 h) | pest or weed control at 80 g/ha (CYPES [4]; Cyperus esculentus, 504 h, read-out: Post-emergence action against CYPES (herbicidal action in percent)) | pest or weed control at 80 g/ha (ABUTH [6]; Abutilon theophrasti, 504 h, read-out: Post-emergence action against ABUTH (herbicidal action in percent)) | pest or weed control at 320 g/ha (STEME [7]; Stellaria media, 504 h) | pest or weed control at 320 g/ha (VERPE [9]; Veronica persica, 504 h) | pest or weed control at 80 g/ha (ECHCG [10]; Echinochloa crus-galli, 504 h, read-out: Post-emergence action against ECHCG (herbicidal action in percent)) | pest or weed control at 80 g/ha (PHBPU [12]; Ipomoea purpurea, 504 h) | pest or weed control at 320 g/ha (POLCO [18]; Fallopia convolvulus, 504 h) | pest or weed control at 320 g/ha (ALOMY [21]; Alopecurus myosuroides, 504 h, read-out: Pre-emergence action against ALOMY (herbicidal activity in percent))
80%: pest or weed control at 320 g/ha (LOLMU; Lolium multiflorum, 504 h, read-out: Pre-emergence action against LOLMU (herbicidal activity))

CCn1nnnc1NC(=O)c1ccc(C(F)(F)F)c(C(C)=O)c1SC [2-58]
100: Post-emergence action against VERPE (VERPE [23]) | Post-emergence action against PHBPU (PHBPU [12]) | Post-emergence action against VIOTR (VIOTR [19]) | Post-emergence action against STEME (STEME [20])
90: Post-emergence action against POLCO (POLCO [3])
80%: Pre-emergence action against PHBPU (PHBPU [1])
100%: Pre-emergence action against AMARE (herbicidal activity) (AMARE [5]) | Post-emergence action against ABUTH (herbicidal action in percent) (ABUTH [6]) | Pre-emergence action against MATIN (MATIN [8]) | Pre-emergence action against VERPE (VERPE [9]) | Pre-emergence action against ABUTH (herbicidal activity) (ABUTH [11]) | Post-emergence action against MATIN (herbicidal action in percent) (MATIN [13]) | Post-emergence action against AMARE (herbicidal action in percent) (AMARE [24]) | Pre-emergence action against CYPES (herbicidal activity) (CYPES [14]) | Pre-emergence action against ECHCG (herbicidal activity) (ECHCG [15]) | SETVI (Table B8, pre-emergence herbicidal activity) (SETVI [16]) | Pre-emergence action against VIOTR (VIOTR [17]) | Pre-emergence action against POLCO (POLCO [18]) | Pre-emergence action against ALOMY (herbicidal activity in percent) (ALOMY [21]) | Post-emergence action against SETVI (herbicidal action in percent) (SETVI [22])
90%: Pre-emergence action against AVEFA (herbicidal activity) (AVEFA [2]) | Pre-emergence action against LOLMU (herbicidal activity) (LOLMU) | Post-emergence action against CYPES (herbicidal action in percent) (CYPES [4]) | Pre-emergence action against STEME (STEME [7]) | Post-emergence action against ECHCG (herbicidal action in percent) (ECHCG [10])
